How the values were obtained:
MAO-B = MAO-B (Homo sapiens, UniProt P27338); experiment: MAO-B enzymatic activity assay; type: biochemical
Method: (§1) The measurement of the enzymatic activity of all lysyl oxidase family members was based on the detection of hydrogen peroxide with an Amplex‐Red oxidation assay, as described in Zhou et al26 Recombinant human semicarbazide sensitive amine oxidase (SSAO/VAP1), diamine oxidase (DAO) and monoamine oxidases A and B (MAO‐A and MAO‐B) assays were performed as previously described.27 For detailed enzymatic procedures, see supporting information.
Recombinant human semicarbazide sensitive amine oxidase (SSAO/VAP1), diamine oxidase (DAO) and monoamine oxidases A and B (MAO-A and MAO-B) assays were performed as previously described.

Muscarinic M2 = Muscarinic M2 (Homo sapiens, UniProt P08172); experiment: Eurofins Hit Profiling Screen; type: binding; conditions: 10 μmol/L
Sequence of Muscarinic M2 (P08172 whole entry): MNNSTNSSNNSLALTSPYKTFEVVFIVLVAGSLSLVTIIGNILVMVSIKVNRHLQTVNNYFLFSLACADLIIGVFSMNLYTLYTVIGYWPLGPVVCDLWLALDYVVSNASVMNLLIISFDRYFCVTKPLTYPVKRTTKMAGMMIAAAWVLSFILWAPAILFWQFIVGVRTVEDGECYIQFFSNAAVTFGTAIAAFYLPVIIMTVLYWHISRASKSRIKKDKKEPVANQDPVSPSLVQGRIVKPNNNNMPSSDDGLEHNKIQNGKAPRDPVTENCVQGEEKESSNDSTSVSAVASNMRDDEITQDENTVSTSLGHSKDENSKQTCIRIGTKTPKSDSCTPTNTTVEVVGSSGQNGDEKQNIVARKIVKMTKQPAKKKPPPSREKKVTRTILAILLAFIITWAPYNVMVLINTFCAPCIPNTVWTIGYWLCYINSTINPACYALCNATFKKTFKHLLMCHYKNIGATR

Sigma σ1 = Sigma σ1 (Homo sapiens, UniProt Q99720); experiment: Eurofins Hit Profiling Screen; type: binding; conditions: 10 μmol/L
Sequence of Sigma σ1 (Q99720 whole entry): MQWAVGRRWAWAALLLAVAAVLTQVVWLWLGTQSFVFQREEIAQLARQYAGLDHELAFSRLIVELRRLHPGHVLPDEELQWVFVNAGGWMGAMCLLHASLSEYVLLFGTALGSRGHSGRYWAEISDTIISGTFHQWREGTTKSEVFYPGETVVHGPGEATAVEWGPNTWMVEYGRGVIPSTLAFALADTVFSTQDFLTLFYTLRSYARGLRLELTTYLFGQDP

Native human LOXL2 = target: T1, Native human LOXL2 (Homo sapiens, UniProt Q9Y4K0); experiment: Amplex-Red fluorometric enzymatic activity assay, native human LOXL2 (IMR90 conditioned medium); type: biochemical; conditions: 30 minute pre-incubation; average of at least three experiments
T1 construct: separating LOXL2 in the portion at higher molecular weight; host or cells: IMR90 conditioned medium
T1 sequence (Q9Y4K0 26-774): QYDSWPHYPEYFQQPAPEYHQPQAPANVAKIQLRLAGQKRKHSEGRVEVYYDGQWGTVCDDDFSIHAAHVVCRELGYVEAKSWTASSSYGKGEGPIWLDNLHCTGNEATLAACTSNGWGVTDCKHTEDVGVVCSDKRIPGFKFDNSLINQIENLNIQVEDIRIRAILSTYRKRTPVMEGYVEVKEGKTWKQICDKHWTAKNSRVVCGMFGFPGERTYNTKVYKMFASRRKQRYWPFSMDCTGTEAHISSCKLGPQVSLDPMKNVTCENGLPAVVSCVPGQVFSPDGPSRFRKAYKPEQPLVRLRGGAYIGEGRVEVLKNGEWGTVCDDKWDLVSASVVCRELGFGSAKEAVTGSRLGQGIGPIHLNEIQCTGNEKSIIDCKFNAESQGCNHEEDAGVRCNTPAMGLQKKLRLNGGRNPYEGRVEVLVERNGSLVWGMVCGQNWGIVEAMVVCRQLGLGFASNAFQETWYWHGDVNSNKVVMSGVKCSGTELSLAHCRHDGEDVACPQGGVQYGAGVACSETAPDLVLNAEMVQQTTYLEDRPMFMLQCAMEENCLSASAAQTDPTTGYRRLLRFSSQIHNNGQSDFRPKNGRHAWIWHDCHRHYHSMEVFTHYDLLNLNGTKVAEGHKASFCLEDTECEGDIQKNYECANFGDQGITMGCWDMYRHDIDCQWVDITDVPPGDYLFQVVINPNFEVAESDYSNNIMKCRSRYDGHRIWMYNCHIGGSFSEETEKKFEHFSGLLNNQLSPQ
Method: as §1
The measurement of the enzymatic activity of all lysyl oxidase family members was based on the detection of hydrogen peroxide with an Amplex-Red oxidation assay, as described in Zhou et al.[1]; miniaturised in 384 well format, with the appropriate combination of substrate and assay buffer for each individual enzyme. After a 30 minute pre-incubation of the enzyme at 37 °C with the test compound (or with different incubation times for the time-dependency assay), one volume of reaction mixture containing 120 μM Amplex Red (AR) (Life Technologies), 1.5 U/mL horseradish peroxidase (HRP) (Sigma-Aldrich) and the specific substrate was added to each sample. The relative fluorescence units (RFU) were then measured every 2.5 minutes for 30 minutes at 37°C, excitation 565 nm and emission 590, on a BMG Clariostar Microplate Reader. […]

Potassium Channel hERG = Potassium Channel hERG (Homo sapiens, UniProt Q12809); experiment: Eurofins Hit Profiling Screen; type: binding; conditions: 10 μmol/L
Sequence of Potassium Channel hERG (Q12809 whole entry): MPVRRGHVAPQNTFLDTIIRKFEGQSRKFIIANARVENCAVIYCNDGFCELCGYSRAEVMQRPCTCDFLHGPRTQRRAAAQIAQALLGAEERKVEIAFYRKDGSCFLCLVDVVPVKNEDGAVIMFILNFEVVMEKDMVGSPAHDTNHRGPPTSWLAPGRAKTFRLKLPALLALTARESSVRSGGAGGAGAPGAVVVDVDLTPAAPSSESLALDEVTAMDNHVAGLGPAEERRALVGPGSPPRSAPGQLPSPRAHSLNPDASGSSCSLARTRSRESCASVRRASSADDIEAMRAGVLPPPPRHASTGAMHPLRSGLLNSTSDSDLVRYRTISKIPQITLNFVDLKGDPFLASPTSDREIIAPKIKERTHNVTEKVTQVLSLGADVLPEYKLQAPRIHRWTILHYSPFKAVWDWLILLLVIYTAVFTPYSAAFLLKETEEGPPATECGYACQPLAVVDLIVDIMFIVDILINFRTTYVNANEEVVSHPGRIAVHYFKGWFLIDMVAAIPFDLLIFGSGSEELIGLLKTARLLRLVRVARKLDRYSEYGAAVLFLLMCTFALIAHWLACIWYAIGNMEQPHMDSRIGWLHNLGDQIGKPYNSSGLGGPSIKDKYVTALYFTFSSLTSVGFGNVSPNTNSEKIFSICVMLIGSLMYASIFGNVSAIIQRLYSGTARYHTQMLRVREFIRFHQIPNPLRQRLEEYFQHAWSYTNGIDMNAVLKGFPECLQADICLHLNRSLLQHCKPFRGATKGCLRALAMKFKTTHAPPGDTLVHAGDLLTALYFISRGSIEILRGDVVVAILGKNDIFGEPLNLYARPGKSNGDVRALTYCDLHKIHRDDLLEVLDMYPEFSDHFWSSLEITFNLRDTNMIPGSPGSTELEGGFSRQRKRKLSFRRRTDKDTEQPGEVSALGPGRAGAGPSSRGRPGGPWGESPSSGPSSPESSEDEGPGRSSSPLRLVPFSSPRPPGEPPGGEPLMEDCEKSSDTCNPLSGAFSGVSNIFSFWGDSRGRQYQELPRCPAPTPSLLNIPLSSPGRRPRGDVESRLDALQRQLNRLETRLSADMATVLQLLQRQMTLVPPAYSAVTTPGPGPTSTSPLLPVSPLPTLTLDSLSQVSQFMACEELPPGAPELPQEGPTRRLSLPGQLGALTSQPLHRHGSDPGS

Adrenergic β2 = Adrenergic β2 (Homo sapiens, UniProt P07550); experiment: Eurofins Hit Profiling Screen; type: binding; conditions: 10 μmol/L
Sequence of Adrenergic β2 (P07550 whole entry): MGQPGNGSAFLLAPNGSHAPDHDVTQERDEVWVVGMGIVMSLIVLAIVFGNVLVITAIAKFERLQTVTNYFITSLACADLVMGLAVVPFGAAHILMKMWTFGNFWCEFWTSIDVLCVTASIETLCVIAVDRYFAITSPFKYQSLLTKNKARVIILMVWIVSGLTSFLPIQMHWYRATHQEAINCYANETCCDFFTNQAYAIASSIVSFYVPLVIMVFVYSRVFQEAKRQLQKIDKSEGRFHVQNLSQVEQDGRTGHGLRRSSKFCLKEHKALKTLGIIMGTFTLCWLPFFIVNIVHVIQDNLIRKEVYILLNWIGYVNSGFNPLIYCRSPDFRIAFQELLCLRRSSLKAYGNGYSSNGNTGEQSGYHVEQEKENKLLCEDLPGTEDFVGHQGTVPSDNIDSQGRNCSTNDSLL

Sodium Channel, Site 2 = experiment: Eurofins Hit Profiling Screen; type: binding; conditions: 10 μmol/L

Sequence of MAO-B (P27338 whole entry): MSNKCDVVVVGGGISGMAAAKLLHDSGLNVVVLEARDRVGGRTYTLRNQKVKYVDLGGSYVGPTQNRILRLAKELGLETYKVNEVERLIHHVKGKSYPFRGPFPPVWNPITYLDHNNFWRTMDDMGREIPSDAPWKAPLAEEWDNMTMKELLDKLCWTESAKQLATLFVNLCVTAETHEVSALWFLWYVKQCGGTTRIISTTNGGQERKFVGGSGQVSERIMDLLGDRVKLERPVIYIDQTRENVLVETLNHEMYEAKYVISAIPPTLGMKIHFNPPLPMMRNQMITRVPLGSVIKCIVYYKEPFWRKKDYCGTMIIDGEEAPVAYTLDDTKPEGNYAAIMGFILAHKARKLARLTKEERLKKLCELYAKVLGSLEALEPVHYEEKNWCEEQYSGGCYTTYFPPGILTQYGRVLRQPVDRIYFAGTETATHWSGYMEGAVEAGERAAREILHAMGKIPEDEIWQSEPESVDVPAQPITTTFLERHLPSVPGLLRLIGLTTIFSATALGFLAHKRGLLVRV

Cc1c(-c2cccc(S(=O)(=O)N(C)C)c2)c2ncccc2n1C/C(F)=C/CN.Cl.Cl [PXS-5153A]
IC50 (MAO-B): > 30 µM | % inhibition (Muscarinic M2): 58% | % inhibition (Sigma σ1): 8% | IC50 (Native human LOXL2): 38 nM | pIC50 ± SD (Native human LOXL2): 7.4 ± 0.12 | % inhibition (Potassium Channel hERG): 47% | % inhibition (Adrenergic β2): -5% | % inhibition (Sodium Channel, Site 2): 57%

Reference: PMC6378217, “The lysyl oxidase like 2/3 enzymatic inhibitor, PXS‐5153A, reduces crosslinks and ameliorates fibrosis” (Journal of Cellular and Molecular Medicine, 2018)
